Reference: patent US9212359B2, “Systems for induction of gene expression and protein depletion in yeast” (priority 2011, dated 2015)

Tested on: GEV
Assay: β-Galactosidase activity assay, PGAL1-lacZ reporter plasmid pCM64-GAL1 in DBY12100
Type: cell-based, S. cerevisiae
Conditions: 2 hours incubation, 1 μM or 10 μM DOC
Protocol: Assays were performed essentially as described in (Liu et al., 1999) with minor modifications. 5 mL of cells transformed with pCM64-GAL1 were grown to midlog phase in SC-URA medium at 30° C., then incubated at indicated temperatures for the indicated times with or without (a) 5 μL of ethanol (vehicle control), (b) 2 μL of 2.5 mM β-estradiol (Sigma) dissolved in ethanol (final concentration of 1 μM), (c) 5 μL of 1 mM DOC (deoxycorticosterone; Sigma) dissolved in ethanol (final concentration of 1 μM), or (d) 5 μL of 10 mM DOC dissolved in ethanol (final concentration of 10 μM). Cells (1 mL) were harvested by centrifugation, washed once with sterile H2O, and resuspended in 700 μl of Z buffer (100 mM sodium phosphate, pH 7.0, 10 mM KCl, 1 mM MgSO4, 50 mM β-mercaptoethanol). 50 μl of chloroform and 50 μl of 0.1% SDS were added, and the cell suspension was vortex-mixed at top speed for 30 seconds followed by addition of 200 μl of 4 mg/ml ONPG (ortho-nitrophenyl-β-galactoside; Sigma) was added to each sample and incubated at room temperature until pale yellow color appeared. […] After clarification by centrifugation, the supernatant was diluted, and A420 was measured within the linear response range. Specific β-galactosidase activity was calculated as follows: (A420×1000)/(A600×(volume of cells examined in ml)×(time of incubation in minutes)) and reported in Miller units. […]

With `C[C@]12CC[C@H]3[C@@H](CCC4=CC(=O)CC[C@@]43C)[C@@H]1CC[C@@H]2C(=O)CO` [deoxycorticosterone] the “induction of GEV (lacZ activity)” value was “not induced”.
